Ends that are not written are not given here.
Assays:
[1] = treated test animals; e.g. provoking marked hyperlactemia followed by hyperglycemia; cited from earlier work
[2] = when compared to human amylin; cited from earlier work
[3] = Enhancement of peptide absorption in the lung by absorption enhancers (animal model); format: in vivo; settings: tested as absorption enhancer, pulmonary route
[4] = Pharmacokinetics after intra-tracheal dry powder delivery to anaesthetised pigs; format: in vivo; settings: pig, inhaled or intranasal, pramlintide/insulin aspart powder delivered intra-tracheally, plasma
Method: For pulmonary delivery the PennCentury™ DP-4 dry powder insufflator (Penn-Century Inc) modified for pigs was used in combination with the PennCentury™ adjustable air pump, model AP-1 (Penn-Century Inc). The powder is weighed into the sample chamber of the device and manually emitted from the device by using the AP-1 adjustable pump.
The pigs were fasted for approximately 18 h before the experiment. Anaesthesia was induced by injecting Domitor IV (1 mg/mL, 0.4 mL/pig), followed by slow IV infusion of Propofol (10 mg/ml) until the sufficient depth of anaesthesia was obtained, approximately 10-15 mL/pig in total. Atropin (1 mg/ml, 0.5 mL/pig) was injected i.m. to stabilize cardiac parameters and to decrease bronchial secretions. After anaesthesia (and) the pigs were intubated with an endotracheal tube size 8.0 mm. Via an L-piece and the endotraceal tube the pigs were connected to a respirator, with respiration frequency set to 10/min and tidal volume to 300 mL/breath to mimic deep inhalations in humans. […]
Insulin aspart was analyzed using an in-house LOCI sandwich immunoassay with two different antibodies. […] Pramlintide was analyzed using a commercially available human amylin ELISA kit modified for porcine samples (Linco Research, cat. no. EZHA-52K). […]

[5] = cited from earlier work

| Compound | amylin activity in vivo [1] | enhancement of peptide absorption in the lung [3] | further results |
| --- | --- | --- | --- |
| ^18Arg^25, 28Pro-h-amylin | show amylin activity in vivo |  | solubility and stability characteristics [2]: more desirable solubility and stability characteristics |
| C[C@H](CCC(=O)NCC(=O)O)[C@H]1CC[C@H]2[C@@H]3[C@H](O)C[C@@H]4C[C@H](O)CC[C@]4(C)[C@H]3C[C@H](O)[C@]12C [glycocholate] |  | effectively enhance peptide absorption in the lung |  |
| CC[C@H](C)[C@H](NC(=O)[C@@H]1CCCN1C(=O)CNC(=O)[C@H](Cc1ccccc1)NC(=O)[C@H](CC(N)=O)NC(=O)[C@H](CC(N)=O)NC(=O)[C@H](CO)NC(=O)[C@H](CO)NC(=O)[C@H](Cc1c[nH]cn1)NC(=O)[C@@H](NC(=O)[C@H](CC(C)C)NC(=O)[C@H](Cc1ccccc1)NC(=O)[C@H](CC(N)=O)NC(=O)[C@H](C)NC(=O)[C@H](CC(C)C)NC(=O)[C@H](CCCNC(=N)N)NC(=O)[C@H](CCC(N)=O)NC(=O)[C@@H](NC(=O)[C@H](C)NC(=O)[C@@H]1CSSC[C@H](NC(=O)[C@@H](N)CCCCN)C(=O)N[C@@H](CC(N)=O)C(=O)N[C@@H]([C@@H](C)O)C(=O)N[C@@H](C)C(=O)N[C@@H]([C@@H](C)O)C(=O)N1)[C@@H](C)O)C(C)C)C(=O)N[C@@H](CC(C)C)C(=O)N1CCC[C@H]1C(=O)N1CCC[C@H]1C(=O)N[C@H](C(=O)N[C@@H](CC(N)=O)C(=O)N[C@H](C(=O)NCC(=O)N[C@@H](CO)C(=O)N[C@@H](CC(N)=O)C(=O)N[C@H](C(=O)N[C@@H](Cc1ccc(O)cc1)C(N)=O)[C@@H](C)O)C(C)C)[C@@H](C)O [Symlin, ^25,28,29Pro-h-amylin] |  |  | Tmax [4]: 40 min; time to reach Cmax ([5]; after a subcutaneous injection): approximately 20 minutes; plasma t½ ([5]; subcutaneous injection): approximately 20 minutes; solubility and stability characteristics [2]: more desirable solubility and stability characteristics |
| Dimethyl-β-cyclodextrin |  | absorption enhancing effect |  |
| C[C@H](CCC(=O)O)[C@H]1CC[C@H]2[C@@H]3[C@@H](O)C[C@@H]4C[C@H](O)CC[C@]4(C)[C@H]3CC[C@]12C [ursodeoxycholate] |  | effectively enhance peptide absorption in the lung |  |
| des-^1Lys^18Arg^25, 28Pro-h-amylin | show amylin activity in vivo |  |  |
| lysophospatidylcholine |  | effective enhancer |  |
| ^25Pro^26Val^28, 29Pro-h-amylin |  |  | solubility and stability characteristics [2]: more desirable solubility and stability characteristics |
| CC(=O)OC1CC2(C)C(CC(O)C3C4(C)CCC(O)C(C)C4CCC32C)C1=C(CCCC(C)C)C(=O)NCCS(=O)(=O)O (stereo not drawn) [taurodihydrofusidate] |  | effectively enhance peptide absorption in the lung |  |
| ^28Pro-h-amylin (KCNTATCATQRLANFLVHSSNNFGAILPSTNVGSNTY; ends and bridges not checked; cysteine pairing not given here; UniProt P10997 34-70, looked up, variant S28P) | show amylin activity in vivo |  |  |
| des-^1Lys-h-amylin (CNTATCATQRLANFLVHSSNNFGAILSSTNVGSNTY; ends and bridges not checked; cysteine pairing not given here; UniProt P10997 35-70, looked up, fragment) | show amylin activity in vivo |  |  |
